Results from patent publication US6562864B1, “Catechin multimers as therapeutic drug delivery agents” (priority 1999, dated 2003).
Read-outs that look alike come from different tables or passages of the source.

How the values were obtained:
[1] = test system: human platelets; assay: Human platelet aggregation trial with thrombin as aggregating agent; type: cell-based
Procedure: (§1) Human platelet aggregation trials, using PAF and thrombin as aggregating agents, were conducted with gallic acid, catechin and amidated catechin multimers (made according to the process of Example 1). The protocol was as follows: Test compounds (50 μM gallic acid, 100 μM catechin and 3 μM amidated catechin multimer) were dissolved in water and 10 μl of sample was added to 1 ml aliquots of human platelets to give the final estimated vessel content concentration of 3 μM.^1 Next, human platelets at a concentration of 1×10^−7/ml were preincubated for ten minutes at 37° C. with either vehicle (contol) or with 3 μM of the amino-catechin multimer test compound. Then, either platelet activating factor (5×10^−10 μM) or thrombin (0.05 mg/ml) were added and aggregation was monitored over the next 10 minutes in a PACKS-4 Platelet Aggregation Chromogenic Kinetic System (Helena Lab., Beaumont, Tex.). ^1 The molar concentration of total product was 10 μM. […] For molar calculations, the molecular weight of the amino-catechin was presumed to be 300 daltons.

[2] = test system: human platelets; assay: Human platelet aggregation trial with platelet activating factor (PAF) as aggregating agent; type: cell-based
Procedure: as §1

[3] = Preliminary ex-vitro trials: cholesterol solubility in human plasma
Source text: Limonene is commonly thought of as a solvent, having a KB value of 67.

[4] = test system: rat aortic rings; assay: Contraction and endothelium dependent relaxation of rat aortic rings; conditions: mean (±SEM)
Procedure: Male Sprague-Dawley rats (200-250 g) were euthanized with an overdose of sodium pentobarbital (100 mg/kg, i.p.) and bled. The thoracic aorta was excised and cleaned and rings 3-4 mm in length were cut, taking care not to disturb the endothelium The rings were suspended in tissue baths containing a physiologic salt solution. The solution was bubbled continuously with O2/CO2 (95%/5%), and maintained at 37° C. Contraction activity was recorded on a Grass polygraph. After equilibration for at least 1 h under 1.5 g of tension, tissues were contracted submaximally (approximately 80% of Emax) with 1 μM phenylephrine. […] This concentration of acetylcholine is sufficient to produce maximum endothelium dependent relaxation in intact rings.
Rings were washed with physiological salt solution three times over the next 45 min. prior to the subsequent testing. Beginning with a concentration determined in preliminary experiments to be below the threshold for relaxation, and increased until a relaxation of approximately 15% was achieved (relative to the relaxation induced by 3 μM acetycholine).

## O=C(O)c1cc(O)c(O)c(O)c1 [gallic acid]
[1]; 50 μM
  inhibition of human platelet aggregation caused by thrombin: no inhibition
[2]; 50 μM
  inhibition of human platelet aggregation caused by platelet activating factor: no inhibition

## O.Oc1cc(O)c2c(c1)O[C@H](c1ccc(O)c(O)c1)[C@@H](O)C2 [catechin]
[1]; 100 μM
  inhibition of human platelet aggregation caused by thrombin: no inhibition
[2]; 100 μM
  inhibition of human platelet aggregation caused by platelet activating factor: no inhibition

## C=C(C)C1CC=C(C)CC1 (centres unmarked) [limonene, 4-isopropenyl-1-methylcyclohexene]
[3]; minimum rate
  rate of plasma metabolizing excess cholesterol: ≥ 4 % per hour
[3]; over a one hour period
  increase of the rate of solubility of cholesterol: 24%

## CC(=O)OCC[N+](C)(C)C [acetylcholine]
[4]; rat aortic rings contracted with 1 μM phenylephrine, read-out: EC50 for EDR (endothelium dependent relaxation)
  EC50: 0.12 ± 0.06 µM

## CNC[C@H](O)c1cccc(O)c1 [phenylephrine]
[4]; rat aortic rings, read-out: EC50 value for phenylephrine (contractile effect)
  EC50: 0.14 ± 0.02 µM
